As a reminder, the Kd is the concentration at which binding is half-saturated.

One assay deals with T1, folate receptor α (FRα) (Homo sapiens, UniProt P15328).
T1 construct: gene FOLR1
The assay can be described thus: 3H-folic acid competition radioligand assay on […] cells transfected with FRα. Type of assay: cell-based.

The target of assay [1] is T2, folate receptor β (FRβ) (Homo sapiens, UniProt P14207).
T2 construct: gene FOLR2
The assay can be described thus: 3H-folic acid competition radioligand assay on […] cells transfected with FRβ. Type of assay: cell-based.

Assay [2] concerns the target T2, folate receptor β (FRβ). Described as above.

Structures are written as SMILES. Read-outs that look alike come from different tables or passages of the source.

T2 sequence (P14207 17-230): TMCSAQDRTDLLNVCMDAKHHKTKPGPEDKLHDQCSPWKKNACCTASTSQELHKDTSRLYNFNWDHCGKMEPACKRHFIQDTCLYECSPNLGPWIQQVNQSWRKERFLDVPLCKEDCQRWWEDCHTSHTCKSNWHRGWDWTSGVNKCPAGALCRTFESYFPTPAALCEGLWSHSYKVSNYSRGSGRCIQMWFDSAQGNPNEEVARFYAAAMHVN
T1 sequence (P15328 25-234): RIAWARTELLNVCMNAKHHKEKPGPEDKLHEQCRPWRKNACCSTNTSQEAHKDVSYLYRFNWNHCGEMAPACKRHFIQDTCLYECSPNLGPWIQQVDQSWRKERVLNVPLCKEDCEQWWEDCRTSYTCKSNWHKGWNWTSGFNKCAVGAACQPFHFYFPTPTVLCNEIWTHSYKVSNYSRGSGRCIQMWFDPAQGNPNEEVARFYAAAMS

Turning to `CC1(C)C(=CC=C2CCCC(C=CC3=[N+](CCCCS(=O)(=O)[O-])c4ccc(S(=O)(=O)O)cc4C3(C)C)=C2Oc2ccc(C[C@H](NC(=O)c3ccc(CCc4c[nH]c5[nH]c(N)nc(=O)c45)cc3)C(=O)O)cc2)N(CCCCS(=O)(=O)O)c2ccc(S(=O)(=O)O)cc21` [NY-07], the dissociation constant (Kd) at folate receptor α (FRα) amounted to 0.0617 µM; on folate receptor β (FRβ) [1], 0.487 µM. On to `Nc1nc(=O)c2nc(CNc3ccc(C(=O)N[C@@H](CCC(=O)O)C(=O)O)cc3)cnc2[nH]1` [folate, folic acid], for which the Kd entry on folate receptor β (FRβ) [2] is “Assessment of K d of folate, OTL38, and NY-07 to FRβ”.

Values taken from paper PMC13014312, “Fluorescence Discrimination of Cancer from Inflammation by Selective Targeting Folate Receptor α” (Chemical & Biomedical Imaging, 2025).
